From patent US11065201B2, “Gel formulations for local drug release” (TECHNICAL UNIVERSITY OF DENMARK, priority 2014, dated 2021)
Each block holds one compound with its values, some of them ahead of it.

What was measured:
[1] = Gel formation after injection of sugar ester formulations into PBS buffer; assay type: physicochemical; details: for injection into PBS and gel-formation: formulated with 35% and 20% propylene carbonate, respectively
Description: The gel-forming properties of the synthesized esters containing only small percentages of organic solvents and/or triglycerides were inspected in the following experiments
˜210 mg of the following sugar ester formulations: α,β Lactose octaacetate: α,β Lactose octaisobutyrate 5:1, α,β Lactose octaacetate: α,β Lactose octaisobutyrate 2:1, α,β Lactose octaacetate: α,β Lactose octaisobutyrate 1:1, α,β Lactose octaacetate: α,β Lactose octapropionate 1:1, α,β Lactose octaacetate: α,β Lactose octapropionate 1:5, α,β Lactose octaacetate: α,β Lactose octapropionate 1:3, α,β Lactose octapropionate: α,β Lactose octaisobutyrate 1:1, α,β Lactose octaacetate: α,β Lactose octaisobutyrate 1:5, α,β Lactose octapropionate, α,β Lactose octaisobutyrate: α,β Lactose octaacetate 0.5:0.5:5, α,β Lactose octaisobutyrate: α,β Lactose octaacetate 3:1, Trehalose octaacetate:Trehalose octapropionate 1:1, Trehalose octapropionate, Trehalose octaisobutyrate, Raffinose undecaacetate:Raffinose undecapropionate 1:1, Raffinose undecaisobutyrate, β-maltose octaisobutyrate and α,β-D-glucosamine pentapropionate were mixed with 20 wt % EtOH by heating to ˜37° C., vortexing and ultrasonication. ˜50-80 uL of the resulting formulations were then injected into 2 mL of PBS buffer using 25 G needles.
˜210 mg of the following sugar ester formulations: α,β Lactose octaacetate, α,β lactose octapropionate, α,β Lactose octaacetate: α,β lactose octapropionate 1:1, α,β lactose octaisobutyrate, α,β maltose octapropionate, β maltose octapropionate, α-D-glucosamine pentapropionate, α, β-D-glucosamine pentapropionate, β maltose octapropionate: α-D-glucosamine pentapropionate 1:1 and α-D-glucosamine pentaisobutyrate were mixed with 20 wt % NMP or DMSO by heating to ˜37° C., vortexing and ultrasonication. ˜50-60 uL of the resulting formulations were injected into PBS. With maltose octapropionate, glucosamine pentapropionate and lactose octaacetate alternative wt % of solvents were also tried (i.e. 25-40 wt % of the before mentioned solvents). […] In case of α,β-maltose propionate and α,β-D-glucosamine pentapropionate, injection into PBS and gel-formation are also successful when formulated with 35% and 20% propylene carbonate, respectively (examples shown in FIG. 1). Pure α-D-Glucosamine esters and hydrophilic maltose ester analogues have a tendency to form hard amorphous solids with some crystallinity after injection into PBS—so although ˜20 wt % solvent is possible to inject with difficulty, gels of this type containing ˜25-35 wt % solvent are easier to handle.
˜210 mg of α,β Lactose octaacetate: α,β Lactose octapropionate 1:1 or α,β Lactose octaisobutyrate were mixed with 2, 5 or 10 wt % glycerol trioctanoate, 5% DMSO and EtOH was added to give 20 wt % solvent in total for all formulations. In case of lactose octaisobutyrate, formulations containing 15 wt % glycerol trioctanoate and 5% DMSO, 30 wt % glycerol trioctanoate and 5% NMP/DMSO or 40 wt % glycerol trioctanoate alone were also made. The solutions were mixed by heating to ˜37° C., vortexing and ultrasonication. ˜40-60 uL of the resulting formulations were injected into PBS.

[2] = cited from earlier work
[3] = system: FaDu Head and Neck xenografts; experiment: Diffusion of Hoechst evaluated by fluorescent imaging of tumor cryo-sections; assay type: in vivo, NMRI nude mice
Description: Formulations of lactose isobutyrate:X-SAIB (contrast agent): EtOH and DMSO with composition of 1)75:5:15:5, 2) 77, 5:5:12, 5:5 and 2) 80:5:10:5 were prepared along with formulations of lactose acetate:propionate(1:1):X-SAIB(contrast agent): EtOH and DMSO in 75:5:15:5 ratio. All of the gel formulations were prepared with ˜0.7‰ of Hoechst 33342, as model of a DNA binding drug. 25-30 uL of each gel was injected into FaDu Head and Neck xenografts grown on the flank of NMRI nude mice (groups of 4-8 mice were injected with each formulation). Release and gel-stability was monitored for a maximum of 5-6 days. 2-3 mice were sacrificed at predetermined times (day 1, middle of the experimental period and at the end of the experimental period). The tumors were excised and snap-frozen with liquid N2 to preserve the tumor tissue for histological examination. Stability of the radiopaque gel-depots was evaluated by micro-CT imaging (see FIG. 18). Only the lactose isobutyrate gel was subjected to X-rays, to evaluate the effect of radiation on gel-stability. […] Diffusion of Hoechst was evaluated by fluorescent imaging of the tumor cryo-sections (see FIG. 19).

[4] = 20 wt % NMP or DMSO (25-40 wt % also tried for some), ~50-60 uL injected into PBS
[5] = 20 wt % EtOH, ~50-80 uL injected into 2 mL PBS buffer, 25 G needles

Compound: CC(=O)OC[C@H]1O[C@@H](O[C@H]2[C@H](OC(C)=O)[C@@H](OC(C)=O)C(OC(C)=O)O[C@@H]2COC(C)=O)[C@H](OC(C)=O)[C@@H](OC(C)=O)[C@H]1OC(C)=O (stereo partly drawn) [α,β Lactose octaacetate, α,β-Lactose Octaacetate]
injectability ([1]; 20 wt % DMSO or 20 wt % propylene carbonate): this occurs with difficulty due to high viscosity | gel formation upon injection [1, 4]: formation of an amorphous solid (gel) was seen

gel formation upon injection [1, 5]: formed gels upon injection
Compound: CC(C)C(=O)OCC1O[C@H](O[C@@H]2C(COC(=O)C(C)C)O[C@@H](OC(=O)C(C)C)C(OC(=O)C(C)C)[C@H]2OC(=O)C(C)C)C(OC(=O)C(C)C)[C@@H](OC(=O)C(C)C)[C@@H]1OC(=O)C(C)C (stereo partly drawn) [β-maltose octaisobutyrate, β-Maltose Octaisobutyrate]

Compound: NNC(=O)c1ccncc1 [isoniazide]
Log P [2]: ~−0.8

Compound: O=C([O-])c1ccccc1-c1c2cc(Br)c(=O)c(Br)c-2oc2c(Br)c([O-])c(Br)cc12.[Na+].[Na+] [Eosin Y]
Log P [2]: ~6.4

Compound: CC(C)C(=O)NC1[C@@H](OC(=O)C(C)C)OC(COC(=O)C(C)C)[C@@H](OC(=O)C(C)C)[C@@H]1OC(=O)C(C)C (stereo partly drawn) [α-D-glucosamine pentaisobutyrate, α-D Glucosamine Pentaisobutyrate]
gel formation upon injection [1, 4]: formation of an amorphous solid (gel) was seen

Compound: CCC(=O)OC[C@H]1O[C@@H](O[C@H]2[C@H](OC(=O)CC)[C@@H](OC(=O)CC)C(OC(=O)CC)O[C@@H]2COC(=O)CC)[C@H](OC(=O)CC)[C@@H](OC(=O)CC)[C@H]1OC(=O)CC (stereo partly drawn) [α,β lactose octapropionate, α,β-Lactose Octapropionate]
gel formation upon injection [1, 4]: formation of an amorphous solid (gel) was seen

gel formation upon injection [1, 5]: formed gels upon injection
Compound: CC(C)C(=O)OCC1O[C@H](OCC2O[C@@H](O[C@]3(COC(=O)C(C)C)O[C@H](COC(=O)C(C)C)[C@@H](OC(=O)C(C)C)[C@H]3OC(=O)C(C)C)C(OC(=O)C(C)C)[C@@H](OC(=O)C(C)C)[C@@H]2OC(=O)C(C)C)C(OC(=O)C(C)C)[C@@H](OC(=O)C(C)C)[C@H]1OC(=O)C(C)C (stereo partly drawn) [Raffinose undecaisobutyrate, Raffinose Undecaisobutyrate]

Compound: CCOc1ccc(-c2nc3ccc(-c4nc5ccc(N6CCN(C)CC6)cc5[nH]4)cc3[nH]2)cc1 [Hoechst 33342]
release of Hoechst into the tumors ([3]; from gel depots, ~0.7‰ Hoechst 33342, tumor cryo-sections): confirmed release of Hoechst into the tumors | distribution of the fluorophore in the tumor ([3]; over a period of 6 days): distribution of the fluorophore across most of the tumor area

Compound: CCC(=O)NC1[C@@H](OC(=O)CC)OC(COC(=O)CC)[C@@H](OC(=O)CC)[C@@H]1OC(=O)CC (stereo partly drawn) [α-D-glucosamine pentapropionate, α-D Glucosamine Pentapropionate]
gel formation upon injection [1, 4]: formation of an amorphous solid (gel) was seen

Compound: Nc1n[n+]([O-])c2ccccc2[n+]1[O-] [tirapazamine]
Log P [2]: ~−0.06

gel formation upon injection [1, 5]: formed gels upon injection
Compound: Trehalose Octaisobutyrate

injection into PBS and gel-formation [1]: successful
Compound: CCC(=O)OCC1OC(OC(=O)CC)C(OC(=O)CC)[C@@H](OC(=O)CC)[C@@H]1O[C@H]1OC(COC(=O)CC)[C@@H](OC(=O)CC)[C@H](OC(=O)CC)C1OC(=O)CC (stereo partly drawn) [α,β maltose octapropionate, α,β-Maltose Octapropionate]
gel formation upon injection [1, 4]: formation of an amorphous solid (gel) was seen

gel formation upon injection [1, 5]: formed gels upon injection
Compound: CCC(=O)OCC1O[C@@H](O[C@H]2OC(COC(=O)CC)[C@@H](OC(=O)CC)[C@H](OC(=O)CC)C2OC(=O)CC)C(OC(=O)CC)C(OC(=O)CC)[C@H]1OC(=O)CC (stereo partly drawn) [Trehalose octapropionate, Trehalose Octapropionate]

Compound: O=C1OC2(c3ccc(O)cc3Oc3cc(O)ccc32)c2ccccc21 [fluorescein free acid]
Log P [2]: ~1.8

Compound: CCC(=O)OCC1O[C@H](O[C@@H]2C(COC(=O)CC)O[C@@H](OC(=O)CC)C(OC(=O)CC)[C@H]2OC(=O)CC)C(OC(=O)CC)[C@@H](OC(=O)CC)[C@@H]1OC(=O)CC (stereo partly drawn) [β maltose octapropionate, β-Maltose Octapropionate]
gel formation upon injection [1, 4]: formation of an amorphous solid (gel) was seen

gel formation upon injection [1, 5]: formed gels upon injection | injection into PBS and gel-formation [1]: successful
Compound: CCC(=O)NC1C(OC(=O)CC)OC(COC(=O)CC)[C@@H](OC(=O)CC)[C@@H]1OC(=O)CC (stereo partly drawn) [α,β-D-glucosamine pentapropionate, α,β-D Glucosamine Pentapropionate]
gel formation upon injection [1, 4]: formation of an amorphous solid (gel) was seen

Compound: CC(C)C(=O)OC[C@H]1O[C@@H](O[C@H]2[C@H](OC(=O)C(C)C)[C@@H](OC(=O)C(C)C)C(OC(=O)C(C)C)O[C@@H]2COC(=O)C(C)C)[C@H](OC(=O)C(C)C)[C@@H](OC(=O)C(C)C)[C@H]1OC(=O)C(C)C (stereo partly drawn) [α,β lactose octaisobutyrate, α,β-Lactose Octaisobutyrate]
gel formation upon injection ([1]; 2-40 wt % glycerol trioctanoate, with DMSO/NMP/EtOH, ~40-60 uL injected into PBS): formation of an amorphous solid (gel) was seen | gel formation upon injection [1, 4]: formation of an amorphous solid (gel) was seen | appearance of the injected solid ([1]; pure triglyceride used as solvent (40 wt % glycerol trioctanoate alone), up to 24 h after injection): very soft, transparant and could easily be manipulated in shape
